Measured values as given in patent publication US9320771B2, “TTO-based wide spectrum therapeutics, disinfectants and anesthetics for use in aquaculture” (priority 2006, dated 2016).
Where two headings read alike, the source gives them in different places.

How the values were obtained:
viral diseases of fish = conditions: cited from earlier work
[1] = test system: atypical Aeromonas salmonicida; experiment: Culture and sensitivity test, zones of inhibition on T.S.A. culture media; type: cell-based; conditions: 24 h at 24° C.; for zone of inhibition at 30 µg/disc: Aeromonas salmonicida, 24 h, read-out: Zones of inhibition (mm) after 24 h
Procedure: Four TTO-based compositions of the present invention, namely Compositions A-D (See Example 7) were evaluated in their efficacy to inhibit and prevent growth of atypical Aeromonas salmonicida, the causative agent of ulcerative disease of carps on T.S.A. culture media. Every culture plate was inoculated with Gram-negative Aeromonas Bacteria obtained from ulcerated Goldfish. Plates were sterile cultures incubated for 24 h at a temperature of 24° C. Inhibition of the TTO-based compositions was compared simultaneously with 2 familiar anti-bacterial medications, namely (i) Tetracycline (30 μg per disc); and (ii), Norfloxacin (10 30 μg per disc). Comparison discs were supplemented in the lab with 20 to 30 μg of the TTO-based compositions each: 50% Composition D; 50% Composition C; and 66% Composition B (See Example 7).

[2] = test system: Red-clawed Crayfish (Cherax Quadricarinatus); experiment: Growth rate of Red-clawed Crayfish; type: in vivo; conditions: compared to the control group as base reference
Procedure: In a separate experiment the growth rate of Red-clawed Crayfish treated with the TTO formulation was tested in comparison to an untreated tank and to two other disinfecting agents: formaldehyde and sodium bromide (e.g., commercially available Bromex™).

In the case of `CN(C)c1ccc(C(=C2C=CC(=[N+](C)C)C=C2)c2ccccc2)cc1` [malachite green], the “effectiveness against viral diseases of fish” value (viral diseases of fish) is given as “not effective”.
In the case of `CN(C)[C@@H]1C(O)=C(C(N)=O)C(=O)[C@@]2(O)C(O)=C3C(=O)c4c(O)cccc4[C@@](C)(O)[C@H]3C[C@@H]12` [Tetracycline], the “Zones of inhibition (mm) after 24 h” value ([1]; 30 μg per disc) is reported as 22 mm and the zone of inhibition at 30 µg/disc ([1]; 30 μg per disc) is reported as 18 mm.
With `CCn1cc(C(=O)O)c(=O)c2cc(F)c(N3CCNCC3)cc21` [Norfloxacin] the “Zones of inhibition (mm) after 24 h” value ([1]; 10 30 μg per disc, listed as Nx.) was 20 mm and the zone of inhibition at 30 µg/disc ([1]; 10 30 μg per disc) was 28 mm.
In the case of `C=O` [formaldehyde], the growth rates [2] is reported as “about 0.08 % per day”.
